According to patent US20230293479A1, “MEDICINAL COMPOUNDS AND NUTRITIONAL SUPPLEMENTS” (RECEPTOR HOLDINGS, INC., priority 2017, published 2023):

How the values were obtained:
[1] = Example 4: cannabis/SNAC oral rat pharmacokinetic (PK) study; format: in vivo, rats; settings: for Cmax increase over cannabis alone: oral gavage, 50 mg/kg cannabis extract with 500 mg/kg SNAC versus 25 mg/kg cannabis alone
Protocol: Example 4. Summary of cannabis/SNAC oral rat pharmacokinetic (PK) study.
Methods. Animals were dosed on Day 1 and a series of blood samples were collected over a period of 4 hours post dose for pharmacokinetic evaluation. Animals were euthanized following collection of their last blood sample.

study participants [2] = assay: Example 1: onset and duration of action of orally administered cannabis/SNAC composition (self-reported euphoria/dysphoria, 200 mg SNAC); format: in vivo, human; settings: oral cannabinoid formulation, 200 mg SNAC
Protocol: Example 1. […] This study was designed to assess the utility of SNAC in enabling a rapid-acting oral form of cannabis.
Selection of Participants. Six study participants were recruited to ingest cannabis compositions and record the onset, duration, and intensity of cannabis-induced euphoria and/or dysphoria.
(§1) Formulations. The selected cannabis concentrate is commercially available and was provided to participants in an ethanol solution. The concentrate contains 8 mg THC per dose. It was selected because it contains a high percentage of THC, which provides a noticeable effect on user-reported “euphoria”.
(§2) Methods. For the Control experiment, each participant mixed the cannabis concentrate with 15 ml (one tablespoon) of aqueous ethanol, and immediately swallowed the mixture.
(§3) For both the Control experiment and the Test experiment, each participant recorded the time of dose administration, the time of onset of euphoria and/or dysphoria, and the observed level of euphoria and/or dysphoria in fifteen minute intervals for five hours following administration of the cannabis dose. Euphoria and dysphoria were reported using a scale value, in a range from 1-10.

study participants [3] = assay: Example 2: onset and duration of action of orally administered cannabis/SNAC composition at a low SNAC dose (100 mg); format: in vivo, human; settings: oral cannabinoid formulation, 100 mg SNAC
Protocol: Example 2. […] This study was designed to assess the utility of SNAC in enabling a rapid-acting oral form of cannabis at a low dose.
Selection of Participants. Three study participants were recruited to ingest cannabis compositions and record the onset, duration, and intensity of cannabis-induced euphoria and/or dysphoria.
as §1, §2, §3

[4] = cited from earlier work

SMILES | Cmax increase over cannabis alone ([1]; rats) | mean maximum concentration Cmax ([1]; rats, single oral gavage, cannabis extract (THC/CBD 1:1) with SNAC, range over Groups 3-5 (25/250, 25/500, 50/500 mg extract/kg and mg SNAC/kg)) | AUC0-Tlast ([1]; rats, single oral gavage, cannabis extract with SNAC, range over Groups 3-5) | time to reach the mean maximum plasma concentration (Tmax) ([1]; rats, single oral gavage, cannabis extract with SNAC, range over Groups 3-5, post dose) | effect of the absorption enhancer on the cannabinoid duration of action (study participants [2]) | effect of the absorption enhancer on the duration of action (study participants [3]) | effect on cannabinoid absorption ([1]; administered to rats by oral gavage) | duration of appetite stimulant effect ([4]; after administration) | onset of action ([4]; after oral administration) | peak effect ([4]; after oral administration) | administered dose reaching the systemic circulation ([4]; oral, first pass hepatic metabolism and high lipid solubility)
C=C(C)[C@@H]1CCC(C)=C[C@H]1c1c(O)cc(CCCCC)cc1O [CBD, cannabidiol] | 14.2 fold | 31.7 to 159.3 ng/mL | 13.17 to 382.14 ng·h/mL | 15 to 60 min | – | – | – | – | – | – | –
O=C([O-])CCCCCCCNC(=O)c1ccccc1O.[Na+] [SNAC, sodium N-[8-(2-hydroxybenzoyl)amino] caprylate] | – | – | – | – | no effect | no effect | enhances cannabinoid absorption | – | – | – | –
CCCCCc1cc(O)c2c(c1)OC(C)(C)[C@@H]1CCC(C)=C[C@@H]21 [THC, (−)-trans-delta-9-tetrahydrocannabinol] | 6.9 fold | – | – | – | – | – | – | ≥ 24 h | 0.5 to 1 h | 2 to 4 h | 10-20%
